SMILES strings stand for the structures. “Also recorded” adds a separate entry of the source.

This series deals with upper outer arm or back of each subject. Put plainly: Maximization assay (human patch test: induction, rest and challenge phases). The arrangement: key to Maximization Testing Results: 72-Hour Grading / Maximization Testing Results: 48-Hour Grading: 0=not sensitized; 1=mild sensitization (viz. erythema and a little edema); 2=moderate sensitization (erythema with infiltration, raised, spreading beyond the borders of the patch, with or without vesiculation); 3=strong sensitization (large vesicula-bullous reaction). The conditions noted are these: for Maximization Testing Results: 48-Hour Grading: 48 hours after challenge patch; for Maximization Testing Results: 72-Hour Grading: 72 hours after challenge patch. The format is in vivo. As to the method: A group of 26 subjects were tested to compare the activity of lactic acid retinoate (single conjugate) with ethyl lactate retinoate (double conjugate). As a general protocol, a patch (Webril cotton with 0.05 ml of a 5.0% aqueous solution) was applied to the upper outer arm or back of each subject. The entire test was composed of (1) an induction phase (2) a rest phase and (3) a challenge phase.
The scoring scale was as follows: • 0=not sensitized; • 1=mild sensitization (viz. erythema and a little edema); • 2=moderate sensitization (erythema with infiltration, raised, spreading beyond the borders of the patch, with or without vesiculation); and • 3=strong sensitization (large vesicula-bullous reaction).

[1] abbreviates: Subject Number 26 (one volunteer).

With `CCOC(=O)[C@@H](C)OC(=O)/C=C(C)/C=C/C=C(C)/C=C/C1=C(C)CCCC1(C)C` [ethyl lactate retinoate], the “share of the sample population with any skin irritation or allergic reactions” value (26 subjects) is listed as 0%. Also, the “instances of contact allergy” value (48 or 72 hours after application of the challenge patches) is “No instances of contact allergy were recorded”. In addition, under “Subject Number 01-26”, the “Maximization Testing Results: 48-Hour Grading” value is on record as “Subject Number: 01-26, 48-Hour Grading: 0” and the “Maximization Testing Results: 72-Hour Grading” value is on record as “Subject Number: 01-26, 72-Hour Grading: 0”.

On to `CC1=C(/C=C/C(C)=C/C=C/C(C)=C/C(=O)OC(C)C(=O)O)C(C)(C)CCC1` (centres unmarked) [lactyl retinoate, 2-(((2E,4E,6E,8E)-3,7-dimethyl-9-(2,6,6-trimethylcyclohex-1-en-1-yl)nona-2,4,6,8-tetraenoyl)oxy)propanoic acid], for which the “share of the sample population with a delayed skin irritation reaction presumptive of contact allergy” value (25 panelists completed) came to 4%. In addition, where the note is “Subject Number 01-24”, the “Maximization Testing Results: 48-Hour Grading” value is reported as “Subject Number: 01-24, 48-Hour Grading: 0” and the “Maximization Testing Results: 72-Hour Grading” value is “Subject Number: 01-24, 72-Hour Grading: 0”. In addition, under setting [1], the “Maximization Testing Results: 48-Hour Grading” value is “Subject Number: 26, 48-Hour Grading: 1” and the “Maximization Testing Results: 72-Hour Grading” value is “persisted at 72 hours (score 2); also recorded: Subject Number: 26, 72-Hour Grading: 2”. Under “induction phase”, the “adverse or unexpected reactions in the panelists” value is “No adverse or unexpected reactions were” and the “skin irritation at the induction patch (leading to method deviation)” value is “many subjects had skin irritation sufficient enough to change protocol application”.

(Values after patent US10123960B2, “Methods for treating of skin conditions with retinoid double conjugate compounds” (US COSMECEUTECHS LLC, priority 2013, dated 2018).)
